Measured values taken from PubChem BioAssay AID276 (DTP/NCI, 2004).
“And” between values parts separate entries of the source, which are not always exact repeats. Equal entries are not always repeated. Inconclusive results and toxic doses are left out. The calls were made as follows: active = survival T/C of 150% or more; inactive = T/C below 125% in these data.

System: B6C3F1 mice, Lewis lung carcinoma iv, survival T/C
Experiment: NCI In Vivo Anticancer Drug Screen. Data for tumor model Lewis Lung Carcinoma (intravenous) in B6C3F1 mice
Conditions: endpoint: median survival time, schedule: Q01DX009 (ip), higher = longer survival
Summary of the method: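 Mice carrying transplanted tumors received test compound; survival in the treated group was divided by that of the vehicle-treated control group to give the T/C value.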

[1] = dose: 12.5 mg/kg/injection, vehicle: Klucel (hydroxypropylcellulose) (HPC)
[2] = dose: 25.0 mg/kg/injection, vehicle: Klucel (hydroxypropylcellulose) (HPC)
[3] = dose: 50.0 mg/kg/injection, vehicle: Klucel (hydroxypropylcellulose) (HPC)
[4] = dose: 12.5 mg/kg/injection, vehicle: saline
[5] = dose: 25.0 mg/kg/injection, vehicle: saline
[6] = dose: 50.0 mg/kg/injection, vehicle: saline
[7] = dose: 100.0 mg/kg/injection, vehicle: saline
[8] = dose: 200.0 mg/kg/injection, vehicle: saline
[9] = dose: 100.0 mg/kg/injection, vehicle: Klucel (hydroxypropylcellulose) (HPC)
[10] = dose: 200.0 mg/kg/injection, vehicle: Klucel (hydroxypropylcellulose) (HPC)
[11] = dose: 6.25 mg/kg/injection, vehicle: saline with Tween-80
[12] = dose: 12.5 mg/kg/injection, vehicle: saline with Tween-80
[13] = dose: 25.0 mg/kg/injection, vehicle: saline with Tween-80
[14] = dose: 50.0 mg/kg/injection, vehicle: saline with Tween-80
[15] = dose: 100.0 mg/kg/injection, vehicle: saline with Tween-80
[16] = dose: 200.0 mg/kg/injection, vehicle: saline with Tween-80
[17] = dose: 400.0 mg/kg/injection, vehicle: Klucel (hydroxypropylcellulose) (HPC)
[18] = dose: 1.56 mg/kg/injection, vehicle: saline with Tween-80
[19] = dose: 3.12 mg/kg/injection, vehicle: saline with Tween-80

Measured: T/C

COc1ccc(Cl)[n+]([O-])n1
inactive: dose: 0.39 mg/kg/injection, vehicle: Klucel (hydroxypropylcellulose) (HPC) 98 % of control | dose: 0.78 mg/kg/injection, vehicle: Klucel (hydroxypropylcellulose) (HPC) 91 % of control | dose: 1.56 mg/kg/injection, vehicle: Klucel (hydroxypropylcellulose) (HPC) 103 % of control | dose: 3.12 mg/kg/injection, vehicle: Klucel (hydroxypropylcellulose) (HPC) 96 % of control | dose: 6.25 mg/kg/injection, vehicle: Klucel (hydroxypropylcellulose) (HPC) 100 % of control and 88 % of control | [1] 99 % of control and 105 % of control | [2] 107 % of control | [3] 112 % of control

O=CC(S)CO (stereo not drawn)
inactive: [4] 105 % of control and 107 % of control | [5] 95 % of control and 107 % of control | [6] 101 % of control and 102 % of control | [7] 101 % of control and 112 % of control | [8] 96 % of control and 102 % of control

Cn1cc(C2NC(=O)c3ccccc3N2)c2ccccc21 (stereo not drawn)
inactive: [2] 104 % of control | [3] 105 % of control | [9] 100 % of control | [10] 104 % of control

O=C1[C@H]2CCC[C@H]2[C@H]2CCC[C@@H]12
inactive: [11] 95 % of control | [12] 104 % of control | [13] 98 % of control | [14] 95 % of control | [15] 91 % of control | [16] 102 % of control

CC(=O)O[C@@H]1CO[C@H]2O[C@H]3[C@@H](C(C=O)=C[C@H](O)[C@@H]4C5=C(C(C)C)CC[C@]5(C)CC[C@@]34C)[C@@]2(O)C1=O
inactive: dose: 0.75 mg/kg/injection, vehicle: Klucel (hydroxypropylcellulose) (HPC) 103 % of control | dose: 1.5 mg/kg/injection, vehicle: Klucel (hydroxypropylcellulose) (HPC) 98 % of control | dose: 3.0 mg/kg/injection, vehicle: Klucel (hydroxypropylcellulose) (HPC) 100 % of control

c1cc(OCC2CO2)ccc1OCC1CO1 (stereo not drawn)
inactive: [12] 96 % of control | [13] 94 % of control | [14] 100 % of control | [15] 96 % of control

CCc1nc(N)nc(N)c1-c1ccc(Cl)c(N=[N+]=[N-])c1
inactive: dose: 12.5 mg/kg/injection, vehicle: distilled water + Tween-80 97 % of control | dose: 25.0 mg/kg/injection, vehicle: distilled water + Tween-80 100 % of control | dose: 50.0 mg/kg/injection, vehicle: distilled water + Tween-80 100 % of control | dose: 100.0 mg/kg/injection, vehicle: distilled water + Tween-80 106 % of control and 110 % of control | dose: 200.0 mg/kg/injection, vehicle: distilled water + Tween-80 119 % of control

CC(=O)OC1C2(CC3N4C(=O)C5(CO)SSC4(CC31O)C(=O)N5C)OC(C)C(C)(C)C2=O (stereo not drawn)
inactive: dose: 0.08 mg/kg/injection, vehicle: saline 101 % of control | dose: 0.15 mg/kg/injection, vehicle: saline 88 % of control | dose: 0.31 mg/kg/injection, vehicle: saline 105 % of control | dose: 0.62 mg/kg/injection, vehicle: saline 92 % of control | dose: 1.25 mg/kg/injection, vehicle: saline 86 % of control

CC(C)[C@]12O[C@H]1[C@@H]1O[C@]13[C@]1(O[C@H]1C[C@H]1C4=C(C(=O)OC4)[C@@H](O)C[C@@]13C)[C@@H]2O
inactive: dose: 25.0 micrograms/kg/injection, vehicle: saline + alcohol 98 % of control | dose: 50.0 micrograms/kg/injection, vehicle: saline + alcohol 110 % of control | dose: 100.0 micrograms/kg/injection, vehicle: saline + alcohol 102 % of control | dose: 200.0 micrograms/kg/injection, vehicle: saline + alcohol 88 % of control | dose: 400.0 micrograms/kg/injection, vehicle: saline + alcohol 107 % of control

Nc1ncn(C2OC(CO)C(O)C2O)c(=O)n1 (stereo not drawn)
active: [8] 170 % of control | dose: 400.0 mg/kg/injection, vehicle: saline 161 % of control
inactive: dose: 6.25 mg/kg/injection, vehicle: saline 111 % of control | [4] 120 % of control | [5] 115 % of control | [6] 123 % of control

CN(C)CCC(=O)C(=Cc1ccc(O)cc1)C(=O)CCN(C)C
inactive: [4] 97 % of control | [5] 101 % of control | [6] 102 % of control | [7] 105 % of control and 106 % of control | [8] 104 % of control and 107 % of control

C=COC(=O)C(Cc1ccccc1)NC(=O)OCc1ccccc1 (stereo not drawn)
inactive: [13] 103 % of control | [14] 112 % of control | [15] 98 % of control | [16] 105 % of control | dose: 400.0 mg/kg/injection, vehicle: saline with Tween-80 94 % of control

C[Si](C)(C)OSc1ccccc1[N+](=O)[O-]
inactive: [1] 120 % of control | [2] 110 % of control | [3] 102 % of control | [9] 102 % of control | [10] 102 % of control | [17] 104 % of control

Cc1cc(O)c2c(c1O)C(=O)C13C(=C2O)C(=O)C2C(O)C1C1C(O)C3C(=O)C3=C(O)c4c(O)cc(C)c(O)c4C(=O)C321 (stereo not drawn)
inactive: dose: 0.78 mg/kg/injection, vehicle: saline with Tween-80 100 % of control | [18] 91 % of control | [19] 90 % of control

OCCO
inactive: dose: 0.12 % in 0.5 ml injection vol, vehicle: water 107 % of control | dose: 0.25 % in 0.5 ml injection vol, vehicle: water 109 % of control | dose: 0.5 % in 0.5 ml injection vol, vehicle: water 95 % of control | dose: 1.0 % in 0.5 ml injection vol, vehicle: water 99 % of control | dose: 2.0 % in 0.5 ml injection vol, vehicle: water 97 % of control | dose: 4.0 % in 0.5 ml injection vol, vehicle: water 99 % of control

O=C1CN(Cc2ccc3c(c2)OCO3)NO1
inactive: [11] 104 % of control and 109 % of control | [12] 106 % of control and 87 % of control | [13] 104 % of control and 123 % of control | [14] 104 % of control and 111 % of control | [15] 123 % of control and 86 % of control

Oc1c(Cl)cc(Cl)cc1C1N2CCCCC2C2c3cccn3-c3ccccc3N21 (stereo not drawn)
inactive: [1] 106 % of control | [2] 101 % of control | [3] 104 % of control | [9] 95 % of control | [10] 102 % of control

COc1cccc2c1C(=O)c1c(O)c3c(c(O)c1C2=O)CC(O)(/C(C)=N/NC(=O)CCC(=O)N/N=C(\C)C1(O)Cc2c(O)c4c(c(O)c2C(OC2CC(N)C(O)C(C)O2)C1)C(=O)c1c(OC)cccc1C4=O)CC3OC1CC(N)C(O)C(C)O1 (stereo not drawn)
105 % of control and 260 % of control: dose: 6.0 mg/kg/injection, vehicle: water
inactive: dose: 0.75 mg/kg/injection, vehicle: water 99 % of control and 100 % of control | dose: 1.5 mg/kg/injection, vehicle: water 103 % of control and 105 % of control | dose: 3.0 mg/kg/injection, vehicle: water 101 % of control | dose: 12.0 mg/kg/injection, vehicle: water 101 % of control and 113 % of control | dose: 24.0 mg/kg/injection, vehicle: water 104 % of control

CC1=C/C(O)CC(=O)Cc2nc(co2)C(=O)N2CCC=C2C(=O)OC(C(C)C)C(C)/C=C\C(=O)NC/C=C\1 (stereo not drawn)
inactive: [2] 98 % of control | [3] 104 % of control | [9] 92 % of control | [10] 97 % of control | [17] 104 % of control

CO[C@@H]1[C@H](O)CC[C@]2(CO2)[C@H]1[C@@]1(C)O[C@@H]1CC=C(C)C
inactive: [18] 95 % of control and 101 % of control | [19] 95 % of control and 103 % of control | [11] 93 % of control and 101 % of control | [12] 101 % of control | [13] 106 % of control and 115 % of control | [14] 103 % of control and 107 % of control
